Consider 8 molecules from patent publication US11013745B2, “Triazolopyrimidine, triazolopyridine compounds, and the composition thereof for treating PRC2-mediated diseases” (SHANGHAI INSTITUTE OF MATERIA MEDICA, CHINESE ACADEMY OF …, priority 2017, dated 2021).

Like-named read-outs stand apart in the source and are kept apart here.

Data set [1] in a line: Liver microsomal stability (mouse). The data set is classed as in vitro ADME.
Data set [2] can be described thus: Oral pharmacokinetics in rats. The data set is classed as in vivo. The note with it: male, SD, plasma, rat, intragastric, 3 mg/kg. As for the experimental part: 1. Healthy male SD rats were used as test animals, EED226, […]-07 (3 mg/kg) were administered intragastrically, and the drug concentrations in rat plasma were determined by LC/MS/MS method at different time points after drug administration. The pharmacokinetic behavior of the compounds of the present invention in rats was studied, and the pharmacokinetic properties were evaluated. 2. The test animals were healthy adult male SD rats, with 3 rats in each group, purchased from Shanghai Xipuer-Bikai Laboratory Animal Limited Company. 3. Drug preparation: Compounds EED226, […] were dissolved in DMSO/0.5% HPMC (5/95, v/v) for preparation. The compound SL-ZYE-07 was dissolved in 0.5% HPMC (containing 0.5% Tween 80), vortexed, and sonicated to disperse the solid matter uniformly to obtain a pale white suspension. 4, Operation: EED226, […]-07 were administered to rats by intragastric administration (3 mg/kg), 45 μL of blood was taken through the femoral vein at 0.25, 0.5, 1, 2, 4, 8, 24 hour after administration, and centrifuged in a heparinized centrifuge tube for 5 min, and the plasma samples were separated for analysis. The contents of test compounds in rat plasma after intragastric administration of different compounds were determined by Liquid chromatography-mass spectrometry (LC-MS/MS).

Data set [3] is described as follows: Liver microsomal stability (human). Type of data set: in vitro ADME. Here is the method:
(§1) 1. JANUS and temperature control device was turned on. After being initialized, the pipes were flushed until there was no air bubble in the pipes.
(§2) 2. Preparation of buffers used for the experiment
(§3) Preparation of Tris pH 7.4 buffer (0.1 M): 12.12 g of Tris was dissolved in 1000 mL of H2O, the resulting solution was adjusted to pH 7.4 with 2N HCl, aliquoted at 50 mL per tube, and stored at −20° C.
(§4) Preparation of H2O/0.1% BSA buffer: 200 μL of 25% BSA was added to 50 mL of H2O.
(§5) Preparation of VIVID stock solution: 1 mg of VIVID was dissolved in 1 mL of acetonitrile, aliquoted at 50 μL per tube, and stored at −20° C.
(§6) Preparation of MgCl2 solution (100 mM): 1.016 g of MgCl2 was dissolved in 50 mL Tris pH 7.4 buffer, and aliquoted at 1 mL per tube, and stored at −20° C.
(§7) Preparation of NADPH solution (10 mM): 355 mg of NADPH was dissolved in 42.6 mL of Tris pH 7.4 buffer, aliquoted at 1.8 mL per tube, and stored at −20° C.
(§8) Preparation of Blank control: 7.937 mL of Tris, 163 μL of RLM, 450 μL of MgCl2 solution, 450 μL of NADPH solution and 9 mL of methanol were mixed uniformly, aliquoted at 1 mL per tube, and stored at −20° C.
(§9) 3. Preparation of Compound Working Solution
(§10) Dilution step 1:10 μL of compound stock solution was added to 90 μL of DMSO=1 mM stock solution.
(§11) Dilution step 2: 2 μL of 1 mM stock solution was added to 1 mL of H2O/0.1%6 BSA buffer=[…] working solution.
(§12) Dilution step 3: 245 μL of the working solution was added to a 96-well compound plate and added with 5 μL of VIVID stock solution.
(§13) The 96-well compound plate was shaken on a shaker for 5 min.
(§14) 4. The STM in the JANUS in the computer was open to run the EXCEL file, and the JANUS program was operated and run by following the instructions in the EXCEL file.
(§15) 5. After the JANUS program was finished, acetonitrile/water 50:50 (V/V) was added to column 20 of the 384-well black plate, and blank control was added to column 21 of the 384-well black plate.
(§16) 6. the plate (420 nm-465 nm) was read on a microplate reader to determine the VIVID fluorescence intensity.
(§17) 7. After the plate was sealed, shaken and centrifuged, the sample plate was subjected to the LC/MS instrument for sample analysis.
(§18) A profile of the logarithmic value of the remaining rate of the drug in the incubation system versus the incubation time was plotted, and the slope k was obtained by linear regression. The intrinsic clearance rate in vivo (Clint, mL/min/g) value, the clearance rate in vivo (Cl, mL)/min), liver clearance (Clhep, mL/min) and metabolic bioavailability (% MF) were predicted according to the following equations: […]

A further data set has as its target PRC2 enzyme (Homo sapiens (Human), UniProt O75530). In words: PRC2 enzyme activity, TR-FRET method. The data set is classed as biochemical. As for the experimental part:
The TR-FRET method was used to measure the PRC2 enzyme activity. First, the enzyme was mixed with compounds at different concentrations and incubated for 30 min at room temperature. The biotin-labeled histone H3 peptide substrate and the cofactor S-adenosylmethionine (SAM) were added to initiate the enzymatic reaction. After reaction was performed at room temperature for 4 hour, Acceptor and Donor were added and incubated for half an hour. The multifunctional microplate reader EnVision (Perkin Elmer Inc.) was used to detect the fluorescence signal. Data were analyzed using GraphPad Prism 5.0 software, and IC50 values were obtained.

Data set [4] can be described thus: Liver microsomal stability (rat). The data set is classed as in vitro ADME. Here is the method:
as §1, §2, §3, §4, §5, §6, §7, §8, §9, §10, §11, §12, §13, §14, §15, §16, §17, §18

The test system of data set [5] is Pfeiffer cells. Kind of data set: Growth inhibition of Pfeiffer cells in a long term (14 days), CellTiter-Glo. The data set is classed as cell-based, Human. Particulars: Homo sapiens, 336 h, 14 days, read-out: Pfeiffer (14 days) IC50. As for the experimental part: In a CO2 cell incubator (37° C., 5% CO2), Human diffuse large B-cell lymphoma (DLBCL) cell line, pfeiffer (obtained from ATCC, CRL-2632) were incubated with RPMI 1640 medium (Gibco, purchased from Life Technologies, 22400-089) containing 10% fetal bovine serum (Gibco, purchased from Life Technologies, 10099-141) and 1% antibiotics (penicillin and streptomycin, purchased from Life Technologies, 10378016). […] After seeding the cells, they were placed in a CO2 incubator and allowed to stand for 1 hour. In a 24-well plate containing cells, 2 μL of three-fold gradient of the compounds at 9 different concentrations or DMSO were added to each well, such that the final concentration of the compounds was 0.003-20 μM or 0.3-2000 nM, and the final concentration of DMSO was 0.2%. At day 4, day 7, and day 11 of compound treatment, the fresh medium and compounds were changed, and the cell density of the DMSO control well was diluted to 2*10E5 cells/mL. The cell dilution ratio for other compound wells was the same as that of the DMSO control well. Cell viability was determined by using CellTiter-Glo reagent (purchased from Promega Inc., G7572): cells treated with the compounds for 14 days were transferred to a white 384-well plate (OptiPlate-384, purchased from PerkinElmer, 6007299) at 40 μL/well, an equal volume of CellTiter-Glo reagent was further added. After incubating at room temperature for 10 min, the cold luminescence signal was detected with a multifunctional microplate reader EnVision (PerkinElmer) at a wavelength of 400 to 700 nm. Data were analyzed using GraphPad Prism 5.0 software, and IC50 values were obtained.

A further data set relates to Karpas-422 cells. Kind of data set: Growth inhibition of Karpas-422 cells in a long term (11 days), CellTiter-Glo. The data set is classed as cell-based, Human. Particulars: Homo sapiens, 264 h; Karpas-422, 11 days; read-out: Karpas-422 (11 days) IC50.
In data set [6] the test system is Pfeiffer cells. Kind of data set: Pfeiffer cell growth inhibition in a long term (11 days), CellTiter-Glo. Type of data set: cell-based, Human. Particulars: Homo sapiens, 264 h, 11 days, read-out: Experiment on Pfeiffer cell growth inhibition in a long term (11 days IC50). As for the experimental part:
Pfeiffer cells in exponential growth phase were seeded in a 24-well plate with a cell density of 1*10E5 cells/mL. Cells were treated on the same day with the compounds at different concentrations. At day 4 and day 7 of compound treatment, fresh media and compounds were changed. After treated with the compounds for 11 days, cell viability was measured using CellTiter-Glo reagent (Promega Corporation). The data was analyzed using GraphPad Prism 5.0 software and GI50 values were obtained.

The test system of a further data set is SU-DHL-4 cells. In words: Growth inhibition of SU-DHL-4 cells in a long term (11 days), CellTiter-Glo. The data set is classed as cell-based, Human. The note with it: Homo sapiens, 264 h; SU-DHL-4, 11 days; read-out: SU-DHL-4 (11 days) IC50.

Chain of PRC2 enzyme (O75530 whole entry): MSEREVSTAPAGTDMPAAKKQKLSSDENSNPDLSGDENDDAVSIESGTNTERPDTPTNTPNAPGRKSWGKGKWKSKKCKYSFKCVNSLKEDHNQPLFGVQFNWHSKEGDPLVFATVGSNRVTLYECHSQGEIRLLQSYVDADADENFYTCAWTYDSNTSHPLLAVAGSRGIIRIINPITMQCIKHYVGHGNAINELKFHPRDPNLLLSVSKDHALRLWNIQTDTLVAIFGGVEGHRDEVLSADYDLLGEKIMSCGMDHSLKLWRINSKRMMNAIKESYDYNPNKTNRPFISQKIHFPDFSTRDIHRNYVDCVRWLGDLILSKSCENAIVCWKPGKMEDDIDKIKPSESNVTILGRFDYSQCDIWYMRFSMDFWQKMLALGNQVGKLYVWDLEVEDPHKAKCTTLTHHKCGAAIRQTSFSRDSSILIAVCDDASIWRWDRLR
Chain of PRC2 enzyme (Q15910 whole entry partner): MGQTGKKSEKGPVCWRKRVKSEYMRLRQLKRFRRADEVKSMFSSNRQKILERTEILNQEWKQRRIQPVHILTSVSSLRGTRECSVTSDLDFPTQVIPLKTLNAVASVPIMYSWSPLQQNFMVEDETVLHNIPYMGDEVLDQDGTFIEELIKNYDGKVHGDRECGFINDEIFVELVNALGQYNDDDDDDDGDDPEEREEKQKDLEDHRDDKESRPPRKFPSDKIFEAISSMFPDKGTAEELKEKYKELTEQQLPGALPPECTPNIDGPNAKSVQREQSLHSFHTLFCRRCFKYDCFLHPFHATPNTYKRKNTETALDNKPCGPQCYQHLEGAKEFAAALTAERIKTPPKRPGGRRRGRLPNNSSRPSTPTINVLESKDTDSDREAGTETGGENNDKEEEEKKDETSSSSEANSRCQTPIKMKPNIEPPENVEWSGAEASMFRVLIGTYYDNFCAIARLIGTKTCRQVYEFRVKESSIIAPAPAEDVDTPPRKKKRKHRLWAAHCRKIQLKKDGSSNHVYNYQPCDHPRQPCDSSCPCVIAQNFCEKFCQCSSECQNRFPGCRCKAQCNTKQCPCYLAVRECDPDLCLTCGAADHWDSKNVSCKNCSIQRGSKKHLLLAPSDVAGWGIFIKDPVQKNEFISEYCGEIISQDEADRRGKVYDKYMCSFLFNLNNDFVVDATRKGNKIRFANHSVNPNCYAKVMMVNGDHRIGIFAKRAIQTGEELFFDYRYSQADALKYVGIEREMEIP
Chain of PRC2 enzyme (Q15022 whole entry partner): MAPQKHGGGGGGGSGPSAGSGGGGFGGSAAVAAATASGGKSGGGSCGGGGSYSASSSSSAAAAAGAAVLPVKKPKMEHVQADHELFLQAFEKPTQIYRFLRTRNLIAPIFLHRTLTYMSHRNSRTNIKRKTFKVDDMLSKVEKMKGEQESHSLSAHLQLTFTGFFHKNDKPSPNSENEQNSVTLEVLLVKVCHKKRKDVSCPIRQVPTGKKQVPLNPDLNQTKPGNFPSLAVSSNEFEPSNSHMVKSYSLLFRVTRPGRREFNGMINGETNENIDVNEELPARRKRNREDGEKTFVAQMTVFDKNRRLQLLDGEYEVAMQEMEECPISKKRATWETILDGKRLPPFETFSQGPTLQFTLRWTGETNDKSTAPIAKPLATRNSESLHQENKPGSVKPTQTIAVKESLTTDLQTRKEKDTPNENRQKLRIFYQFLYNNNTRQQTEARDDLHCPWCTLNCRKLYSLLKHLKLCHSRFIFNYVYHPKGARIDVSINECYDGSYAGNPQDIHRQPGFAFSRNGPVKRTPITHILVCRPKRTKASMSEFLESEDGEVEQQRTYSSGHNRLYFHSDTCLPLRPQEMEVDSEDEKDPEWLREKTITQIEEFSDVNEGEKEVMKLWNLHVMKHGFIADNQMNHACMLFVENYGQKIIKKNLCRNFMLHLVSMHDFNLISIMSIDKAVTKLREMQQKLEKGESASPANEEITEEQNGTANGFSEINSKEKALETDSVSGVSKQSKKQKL

Regarding `Fc1ccc2c(c1CNc1ncc(C3CCOCC3)c3nncn13)CCO2` [E-Y47], the “Clearance rate in vivo Clint In Vivo Extpl” value in data set [1] (mouse liver microsomes) was found to be 1.17 mL/min; in [3] (human liver microsomes) it was 519 mL/min; in data set [4] (rat liver microsomes), 6.79 mL/min. The figures for the “Intrinsic clearance rate in vivo Clint In Vitro” value in [1] (mouse liver microsomes), in data set [3] (human liver microsomes) and in data set [4] (rat liver microsomes) were 17.3 mL/min/gprot, 6.79 mL/min/gprot and 15.1 mL/min/gprot, respectively. Moreover, the “Liver clearance rate Clint Hep In Vivo Extpl” value is 0.841 mL/min in data set [1] (mouse liver microsomes), 386 mL/min in [3] (human liver microsomes) and 5.07 mL/min in [4] (rat liver microsomes). In addition, the “Metabolic bioavailability MF %” value is listed as 72.0% in data set [1] (mouse liver microsomes) and 74.7% in [4] (rat liver microsomes). The half-life in [1] (mouse, liver microsomes, pH 7.4, mouse liver microsomes, read-out: Half life T-half) is 2.02 h; in data set [2] (read-out: Half life T1/2 (converted)) it was 2.56 ± 0.302 h; in [3] (human, liver microsomes, pH 7.4, human liver microsomes, read-out: Half life T-half) it was 5.15 h; in data set [4] (rat, liver microsomes, pH 7.4, rat liver microsomes, read-out: Half life T-half), 2.32 h. For the same molecule, the AUC(0-t) in data set [2] stood at 7890 ± 2430 ng·h/mL. Besides, the AUC(0-inf) in [2] (extrapolated to infinity, read-out: AUCINF_obs) was 7900 ± 2440 ng·h/mL. Also, the MRT inf in data set [2] (read-out: Average residence time MRTINF_obs) came to 4.92 ± 0.369 h. The Cmax in data set [2] (read-out: Peak concentration Cmax) came to 1300 ± 628 ng/mL. Moreover, the bioavailability in data set [3] (human, liver microsomes, pH 7.4, human liver microsomes, read-out: Metabolic bioavailability MF %) was 74.3%. Further, the IC50 against PRC2 enzyme turned out to be 13 nM; in the data set with Pfeiffer cells [5], 6 nM; in the data set with Karpas-422 cells, 18 nM.
As for `CN1CC=C(c2cnc(NCc3c(F)ccc4c3CCO4)n3cnnc23)CC1` [SL-E23], the “Clearance rate in vivo Clint In Vivo Extpl” value in [1] (mouse, microsomes) was found to be 3.67 mL/min; in data set [3] (human, microsomes) it was 807 mL/min; in data set [4] (rat, microsomes) it was 15.8 mL/min. In addition, the “Intrinsic clearance rate in vivo Clint In Vitro” value in [1] (mouse, microsomes) amounted to 54.4 mL/min/gprot; in data set [3] (human, microsomes) it was 10.5 mL/min/gprot; in data set [4] (rat, microsomes) it was 35.0 mL/min/gprot. In addition, the “Liver clearance rate Clint Hep In Vivo Extpl” value worked out at 1.65 mL/min in [1] (mouse, microsomes); 525 mL/min in [3] (human, microsomes); 8.81 mL/min in data set [4] (rat, microsomes). The half-life is 0.643 h in data set [1] (mouse, microsomes, pH 7.4, Half life T-half); 3.32 h in data set [3] (human, microsomes, pH 7.4, Half life T-half); 1 h in data set [4] (rat, microsomes, pH 7.4, Half life T-half). The “Metabolic bioavailability MF %” value in data set [1] (mouse, pH 7.4) stood at 45.0%; in data set [4] (rat, pH 7.4), 55.9%. The IC50 in the data set with Pfeiffer cells [6] was determined as 7.7 nM; on PRC2 enzyme, 4.7 nM; in the data set with Pfeiffer cells [5], 2 nM; in the data set on Karpas-422 cells, 2.8 nM. In data set [3] (human, pH 7.4, Metabolic bioavailability MF %), this molecule returned a bioavailability of 65%.
With `CN1CCC(c2cnc(NCc3c(F)ccc4c3CCO4)n3cnnc23)=CC1=O` [SL-E24], the IC50 in the data set with SU-DHL-4 cells came out at 3 nM; in the data set with Pfeiffer cells [6], 5.1 nM; on PRC2 enzyme it was 3.9 nM; in the data set on Pfeiffer cells [5] it was 3 nM; in the data set on Karpas-422 cells, 3.1 nM.
Regarding `CCS(=O)(=O)N1CC=C(c2cnc(NCc3c(F)ccc4c3CCO4)n3cnnc23)CC1` [SL-ZYE-144], the IC50 in the data set on SU-DHL-4 cells came to 3 nM; in the data set with Pfeiffer cells [6] it was 1.8 nM; on PRC2 enzyme it was 3.5 nM; in the data set with Pfeiffer cells [5] it was 0.8 nM; in the data set with Karpas-422 cells, 4 nM.
As for `CC(C)S(=O)(=O)N1CC=C(c2cnc(NCc3c(F)ccc4c3CCO4)n3cnnc23)CC1` [SL-ZYE-145], the IC50 in the data set with SU-DHL-4 cells turned out to be 1 nM; in the data set on Pfeiffer cells [6], 1.7 nM; against PRC2 enzyme, 8.9 nM; in the data set on Pfeiffer cells [5], 1 nM; with Karpas-422 cells, 3.2 nM.
In the case of `O=S(=O)(C1CC1)N1CC=C(c2cnc(NCc3c(F)ccc4c3CCO4)n3cnnc23)CC1` [SL-ZYE-146], the IC50 with SU-DHL-4 cells amounted to 4 nM; in the data set on Pfeiffer cells [6], 4.5 nM; on PRC2 enzyme, 2.9 nM; in the data set on Pfeiffer cells [5] it was 3 nM; in the data set on Karpas-422 cells, 4 nM.
With `O=C(C1CC1)N1CC=C(c2cnc(NCc3c(F)ccc4c3CCO4)n3cnnc23)CC1` [SL-ZYE-162], the IC50 turned out to be 3.1 nM in the data set on SU-DHL-4 cells; 2.7 nM in the data set on Pfeiffer cells [6]; 5.2 nM on PRC2 enzyme; 1.2 nM with Pfeiffer cells [5]; 2.8 nM in the data set with Karpas-422 cells.
Regarding `CC1CC(c2cnc(NCc3c(F)ccc4c3CCO4)n3cnnc23)=CCO1` (stereo not drawn) [SL-ZYE-196], the IC50 in the data set with SU-DHL-4 cells was 9 to 50 nM; with Pfeiffer cells [6], 7 nM; on PRC2 enzyme it was 14.1 nM; in the data set on Pfeiffer cells [5], 4 nM; in the data set with Karpas-422 cells it was 19.9 nM.
